# Source: patent publication US20230227511A1, “THERAPEUTIC OR […] FOR INFECTIOUS DISEASE” (NIPPON MEDICAL SCHOOL FOUNDATION, priority 2020, published 2023)
# Key:
# [1] = tested on: sepsis mouse models; test: Administration of the 50-amino acid peptide (PTX3N50) to sepsis mouse models; type: in vivo; conditions: peptide not fused to Fc
# [2] = tested on: vascular endothelial cells; conditions: Patent Document 1; cited from earlier work
substance,measurement,setting,value
"PTX3N50: 50-amino acid peptide on the N-terminal side of PTX3, not fused to Fc (ENSDDYDLMYVNLDNEIDNGLHPTEDPTPCACGQEHSEWDKLFIMLENSQ; UniProt P26022 18-67, looked up, fragment)",survival percentage of the sepsis mouse models,[1],could not improve the survival percentage
same,action to suppress histone cytotoxicity against vascular endothelial cells,[2],has an action to suppress histone cytotoxicity
